Earlier results as cited in patent EP0916677A1, “METHOD FOR SEARCHING FOR PEPTIDES AND PROCESS FOR PRODUCING COMPOUNDS” (YAMANOUCHI PHARMACEUTICAL CO., LTD., priority 1996, dated 1998).

Target: T1, trypsin (Bos taurus, UniProt P00760)
T1 sequence (P00760 24-246): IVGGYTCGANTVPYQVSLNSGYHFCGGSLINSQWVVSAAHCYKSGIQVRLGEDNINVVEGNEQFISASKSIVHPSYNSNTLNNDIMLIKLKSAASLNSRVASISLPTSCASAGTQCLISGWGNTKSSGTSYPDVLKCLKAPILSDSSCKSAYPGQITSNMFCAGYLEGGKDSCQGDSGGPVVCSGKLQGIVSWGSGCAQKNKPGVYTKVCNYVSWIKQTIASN
Conditions: known from Eichler et al., Biochemistry, 1993, 32, 11035

- trypsin inhibitory activity: high
Substance: Ac-TTKIFT-NH2 [TTKIFT, Ac-TTKIFT-NH2]
